Assay results: patent publication US20210275506A1, “COMPOSITIONS AND METHODS OF TREATMENT” (Blueberry Therapeutics Limited, priority 2018, published 2021)
Like-named read-outs stand apart in the source and are kept apart here.

Experiments:
[1] = Solubility of the APIs in ethanol and water vehicles; format: physicochemical; settings: for Solubility in words: water and ethanol; for solubility: water and ethanol vehicles, read-out: Solubility, 10 mg/ml API solution
[2] = DLS particle size (z-average) and polydispersity index of API:Nanocin formulations; format: physicochemical; design: z-average: unit not given here
P. acnes [3] = assay: Bacterial lawn assay with soaked filter discs; format: cell-based, Pseudomonas acnes; settings: Nanocin 1 mg/ml, Diclofenac 0.1-1 mg/ml
Method: The API's formulated with Nanocin were tested on 2 bacterial strains associated with acne. Staphylococcus epidermidis (S. epidermidis) and the anaerobic Pseudomonas acnes (P. acnes). Two types of assay were performed: (i) a bacterial lawn assay where the formulation was pipetted onto a Whatman filter disc and then added to a dried lawn of the bacteria growing on agar; and also, (ii) a liquid minimum inhibitory concentration (MIC) assay, where the bacteria were grown in 96 well plates. The bacterial lawn assay was much faster and easier to grow with the S. epidermidis as it was under aerobic conditions. The P. acnes growth on the agar plates was slower and difficult to capture on a camera (although possible to view by eye; see FIGS. 5c and 5d).

S. epidermidis = assay: Liquid MIC assay in 96 well plates; format: cell-based, Staphylococcus epidermidis; settings: Diclofenac 50-500 ug/ml
Method: (§1) The API's formulated with Nanocin were tested on 2 bacterial strains associated with acne. Staphylococcus epidermidis (S. epidermidis) and the anaerobic Pseudomonas acnes (P. acnes). Two types of assay were performed: (i) a bacterial lawn assay where the formulation was pipetted onto a Whatman filter disc and then added to a dried lawn of the bacteria growing on agar; and also, (ii) a liquid minimum inhibitory concentration (MIC) assay, where the bacteria were grown in 96 well plates.
(§2) However, results from both were reliable.

P. acnes [4] = assay: Liquid MIC assay in 96 well plates; format: cell-based, Pseudomonas acnes; settings: Diclofenac 50-500 ug/ml
Method: as §1, §2

IL-8 = assay: Inflammation assay: IL-8 release of LPS-stimulated THP-1 cells; format: cell-based, human; settings: for potency at inhibiting the LPS inflammatory response, in words / MIC for inhibiting the LPS inflammatory response (IL-8): dose range 0-30 ug/ml; for MIC for inhibiting the LPS inflammatory response (IL-8) / IL-8 release, in words: 24 h; for IL-8 release, in words: 30 ug/ml API, 100 ug/ml Nanocin
TNF-α = assay: Inflammation assay: TNF-α release of LPS-stimulated THP-1 cells; format: cell-based, human; settings: final concentration 1 or 0.1 ug/ml
Method: The release of cytokines (looking particularly at those associated with acne inflammation-TNF-α, IL-8, IL-1α) after stimulation with lipopolysaccharide (LPS) is a valid model system to test compounds for potential anti-inflammatory effects (Reference 1)
To standardise conditions for the assay, a LPS dose (0-1 ug/ml) was investigated on TNF-α, IL-8 and IL-1α response, over a time period from 2,4 and 24 hours.
A 1:1 mg/ml (Nanocin:API) was initially formulated in 20% ethanol and the stock formulation was then diluted down with serum free media and tested at a final concentration of 1 or 0.1 ug/ml.

[5] = In vitro permeation, Franz cell, ToF-SIMS of cross sections and tape strips; format: in vitro ADME, pig; settings: for permeation, key findings: all methods
[6] = aqueous with cosolvent or surfactant or cyclodextrin, 5% ethanol
[7] = aqueous with cosolvent or surfactant or cyclodextrin, 10% ethanol
[8] = aqueous with cosolvent or surfactant or cyclodextrin, 15% ethanol
[9] = aqueous with cosolvent or surfactant or cyclodextrin, 20% ethanol
[10] = aqueous with cosolvent or surfactant or cyclodextrin, 30% ethanol

Row | Solubility in words [1] | SMILES | solubility [1, 6] [µg/mL] | solubility [1, 7] [µg/mL] | solubility [1, 8] [µg/mL] | solubility [1, 9] [µg/mL] | solubility [1, 10] [µg/mL] | solubility ([1]; water) [µg/mL] | PDI ([2]; 0.33:1 mg/ml API:N) | PDI ([2]; 1:1 mg/ml API:N) | potency at inhibiting the LPS inflammatory response, in words (IL-8) | MIC for inhibiting the LPS inflammatory response (IL-8) (IL-8) [µg/mL] | z-average ([2]; 0.33:1 mg/ml API:N) | z-average ([2]; 1:1 mg/ml API:N) | IL-8 release, in words (IL-8) | permeation, key findings [5] | other results
1 | insolubility | Cc1ccc(-c2cc(C(F)(F)F)nn2-c2ccc(S(N)(=O)=O)cc2)cc1 [Celecoxib] | < 10000 | < 10000 | < 10000 | < 10000 | < 10000 | < 10000 | – | – | – | – | – | – | – | – | –
2 | better solubility in water and ethanol | CC(C)Cc1ccc(C(C)C(=O)O)cc1 (centres unmarked) [Ibuprofen] | – | – | – | – | – | – | 0.289 | 0.34 | – | – | 194.1 | 311.9 | very little effect on reducing the IL-8 release | no evidence | –
3 | – | CO[C@H]1C[C@@H]2CC[C@@H](C)[C@@](O)(O2)C(=O)C(=O)N2CCCC[C@H]2C(=O)O[C@H]([C@H](C)C[C@@H]2CC[C@@H](O)[C@H](OC)C2)CC(=O)[C@H](C)/C=C(\C)[C@@H](O)[C@@H](OC)C(=O)[C@H](C)C[C@H](C)/C=C/C=C/C=C/1C [Rapamycin] | < 10000 | < 10000 | < 10000 | < 10000 | > 10000 | < 10000 | – | – | – | 1 | – | – | – | no evidence | –
4 | – | C=CC[C@@H]1/C=C(\C)C[C@H](C)C[C@H](OC)[C@H]2O[C@@](O)(C(=O)C(=O)N3CCCC[C@H]3C(=O)O[C@H](/C(C)=C/[C@@H]3CC[C@@H](O)[C@H](OC)C3)[C@H](C)[C@@H](O)CC1=O)[C@H](C)C[C@@H]2OC [Tacrolimus] | < 10000 | – | > 10000 | > 10000 | > 10000 | < 10000 | 0.332 | 1 | more potent than Ibuprofen | 0.3 | 41.54 | 277.1 | more effective anti-inflammatory | no evidence | Solubility, 10 mg/ml API solution ([1]; 10% ethanol): x(better)

Row | SMILES | Solubility in words [1] | solubility [1, 6] [µg/mL] | solubility [1, 7] [µg/mL] | solubility [1, 8] [µg/mL] | solubility [1, 9] [µg/mL] | solubility [1, 10] [µg/mL] | solubility ([1]; water) [µg/mL] | PDI ([2]; 0.33:1 mg/ml API:N) | PDI ([2]; 1:1 mg/ml API:N) | potency at inhibiting the LPS inflammatory response, in words (IL-8) | MIC for inhibiting the LPS inflammatory response (IL-8) (IL-8) [µg/mL] | z-average ([2]; 0.33:1 mg/ml API:N) | z-average ([2]; 1:1 mg/ml API:N) | IL-8 release, in words (IL-8) | permeation, key findings [5] | other results
5 | O=C(O)Cc1ccccc1Nc1c(Cl)cccc1Cl [Diclofenac] | most soluble | – | > 10000 | > 10000 | > 10000 | > 10000 | > 10000 | 0.251 | 0.817 | more potent than Ibuprofen | 1 | – | – | – | – | inhibition of bacterial growth (halo around disc) (P. acnes [3]): not seen; bacterial growth inhibition by API alone (S. epidermidis): did not exhibit any bacterial growth inhibition; bacterial growth inhibition / anti-bacterial activity of API alone (P. acnes [4]): did not exhibit any bacterial growth inhibition; LPS-stimulated IL-8 response, in words (IL-8; final concentration 1 or 0.1 ug/ml): reduced the LPS-stimulated inflammatory response; LPS-stimulated TNF-α response, in words (TNF-α): reduced the LPS-stimulated inflammatory response; intensity of diclofenac salt ion markers in stratum corneum ([5]; ToF-SIMS cross sections, 1 mg/ml Diclofenac): slight elevation; diclofenac salt ion markers in tape strips 1-3 (permeation into top layers of stratum corneum) ([5]; ToF-SIMS tape strips, 1 mg/ml Diclofenac): does not and none
